Assay results taken from US20050197406A1, “Method of treatment of lung cancer” (priority 1999, published 2005).
Counter-ions that a name gives are not always drawn.

How the values were obtained:
[1] = test system: A549 human lung cancer cells; assay: A549 human lung cancer xenograft model, β-lapachone alone or with gemcitabine; type: in vivo; conditions: for toxicity: female, athymic nude (Ncr), mouse, in vivo, ip; for retardation of tumor growth, monotherapy: β-lapachone 60 mg/kg or gemcitabine 120 mg/kg alone, e.g. days 24 and 27
Procedure: Mice receive a total of eight treatments. Mean tumor volume is analyzed; data points in FIG. 4 represent the arithmetic mean +/−SEM of five tumors.

60 cancer cell lines [2] = conditions: FDA approved chemotherapeutic agents, publicly available data; cited from earlier work
60 cancer cell lines [3] = assay: NCI in vitro screen of 60 cancer cell lines (sulforhodamine B assay); type: cell-based; conditions: Homo sapiens; mean across all cells of NCI60; read-out: LC50 (log 10 molar concentration causing 50% lethality), mean across all cells (converted)
Procedure: The NCI assays are performed under standardized conditions not designed to mimic the conditions of dosing and use the sulforhodamine B assay as the endpoint. […] When compared to many FDA approved chemotherapeutic agents for common cancer types with publicly available data, none of the compared approved drugs exceed the mean of β-lapachone across all cells and only mitoxantrone equals it. FIG. 2.

[4] = test system: A549 human lung cancer cells; type: in vivo; conditions: 60 mg/kg intraperitoneally every three days, 8 treatments
Procedure: The animals are randomized into three groups of seven animals per group. […] Mean tumor volume is then analyzed.

normal cells = assay: In vitro experiments using cell lines of various tissue origins (toxicity to normal cells); type: cell-based
[5] = ip every three days, eight treatments

Row | SMILES | toxicity [1] | retardation of tumor growth, monotherapy [1, 5] | mean LC50 across all cells compared with that of β-lapachone (60 cancer cell lines [2]) | CC50 (60 cancer cell lines [3]) [µM] | reduction of mean tumor volume [4] | retardation of tumor growth, 60 mg/kg compared with 40 mg/kg ([1]; β-lapachone in 40% HPBCD, ip every three days, eight treatments) | toxicity to normal cells (normal cells)
1 | Nc1ccn([C@@H]2O[C@H](CO)[C@@H](O)C2(F)F)c(=O)n1 [gemcitabine, 2′-deoxy-2′,2′-difluorocytidine monohydrochloride (β-isomer), reference compound] | No significant toxicity | retarded tumor growth to a similar extent | – | – | – | – | –
2 | O=C1c2c(O)ccc(O)c2C(=O)c2c(NCCNCCO)ccc(NCCNCCO)c21 [mitoxantrone] | – | – | equals it | – | – | – | –
3 | CC1(C)CCC2=C(O1)c1ccccc1C(=O)C2=O [β-lapachone, 3,4-dihydro-2,2-dimethyl-2H-naphtho[1,2-b]pyran-5,6-dione] | No significant toxicity | retarded tumor growth to a similar extent | – | 8.51 | approximately 50% | more effective at retarding tumor growth | relatively non-toxic to normal cells
